{
  "source": "patent US20150246056A1",
  "about": "“METHODS FOR TREATING OR PREVENTING SYMPTOMS OF HORMONAL VARIATIONS” (priority 2006, published 2015)",
  "key": {"[1]": {"test_system": "hot flashes or other symptoms of hormonal variations"}, "[2]": {"test_system": "α1-adrenergic receptors", "conditions": "cited from earlier work"}, "[3]": {"target": "D1 dopamine receptors (Homo sapiens, UniProt P21728)", "sequence (P21728 whole entry)": "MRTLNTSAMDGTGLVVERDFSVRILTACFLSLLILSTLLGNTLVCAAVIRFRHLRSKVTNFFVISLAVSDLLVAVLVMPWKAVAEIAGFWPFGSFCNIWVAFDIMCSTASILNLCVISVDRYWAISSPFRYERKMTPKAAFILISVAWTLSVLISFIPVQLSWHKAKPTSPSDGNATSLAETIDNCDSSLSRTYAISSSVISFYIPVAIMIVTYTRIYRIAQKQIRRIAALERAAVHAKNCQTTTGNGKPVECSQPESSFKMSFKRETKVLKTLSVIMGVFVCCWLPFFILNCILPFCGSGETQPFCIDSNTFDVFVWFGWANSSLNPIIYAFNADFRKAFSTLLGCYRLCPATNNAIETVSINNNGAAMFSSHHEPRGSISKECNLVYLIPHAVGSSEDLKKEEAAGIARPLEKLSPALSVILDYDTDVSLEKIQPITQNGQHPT", "conditions": "cited from earlier work"}, "[4]": {"target": "dopamine type 2 (D2) receptor (Homo sapiens, UniProt P14416)", "sequence (P14416 whole entry)": "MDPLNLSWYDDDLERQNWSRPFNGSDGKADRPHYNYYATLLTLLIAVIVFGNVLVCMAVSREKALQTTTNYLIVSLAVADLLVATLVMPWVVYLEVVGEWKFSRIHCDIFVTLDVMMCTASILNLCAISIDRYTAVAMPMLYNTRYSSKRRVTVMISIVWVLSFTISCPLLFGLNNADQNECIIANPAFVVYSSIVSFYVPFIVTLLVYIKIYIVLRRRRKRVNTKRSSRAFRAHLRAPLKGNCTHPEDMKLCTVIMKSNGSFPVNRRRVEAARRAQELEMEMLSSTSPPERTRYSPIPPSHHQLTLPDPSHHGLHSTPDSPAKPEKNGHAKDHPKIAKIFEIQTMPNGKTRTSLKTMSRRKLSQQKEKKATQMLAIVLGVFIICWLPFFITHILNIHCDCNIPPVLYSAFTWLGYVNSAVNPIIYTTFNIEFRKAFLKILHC", "conditions": "cited from earlier work"}, "[5]": {"test_system": "α2-adrenergic receptors", "conditions": "cited from earlier work"}, "[6]": {"test_system": "hot flashes", "conditions": "cited from earlier work; for minimizing the occurrence and severity of hot flashes compared with placebo: randomized clinical trials (Loprinzi 2000; Stearns 2003)"}, "[7]": {"target": "D2 dopamine receptor (Homo sapiens, UniProt P14416)", "sequence (P14416 whole entry)": "as above", "conditions": "serial PET scans; cited from earlier work"}, "[8]": {"conditions": "Patient 2, risperidone 2 mg per day"}, "[9]": {"conditions": "Patient 3, risperidone 1 mg daily resumed"}},
  "note": "Where two headings read alike, the source gives them in different places.",
  "data": [
    {"compound": "Cc1nc2n(c(=O)c1CCN1CCC(c3noc4cc(F)ccc34)CC1)CCCC2", "note": "[risperidone]", "values": [
      {"measurement": "associated symptoms, such as palpitation and anxiety", "setting": "[1]; Patient 1, risperidone 2 mg/day", "result": "improved significantly"},
      {"measurement": "time to reoccurrence of hot flashes after discontinuing the treatment", "setting": "[1]; Patient 1, risperidone 2 mg/day discontinued", "result": "2 to 3", "unit": "days"},
      {"measurement": "frequency of hot flashes", "setting": "[1]; Patient 1, risperidone 2 mg/day, after three days of treatment", "result": "once per 1-2 weeks"},
      {"measurement": "time to alleviation of symptoms after resuming treatment", "setting": "[1]; Patient 1, risperidone resumed", "result": "3 to 4", "unit": "days"},
      {"measurement": "hot flashes after treatment was resumed", "setting": "[1]; Patient 2, risperidone 2 mg daily resumed", "result": "has not suffered another hot flash since"},
      {"measurement": "blood pressure", "setting": "[1]; [8]", "result": "stabilized"},
      {"measurement": "sleep", "setting": "[1]; [8]", "result": "slept well"},
      {"measurement": "occurrence of hot flashes", "setting": "[1]; Patient 2, risperidone 2 mg per day, by day 7", "result": "completely eliminated"},
      {"measurement": "occurrence of hot flashes", "setting": "[1]; Patient 2, risperidone 2 mg per day, two days after starting", "result": "reduced markedly"},
      {"measurement": "time to return of hot flashes and night sweats after treatment was completely discontinued", "setting": "[1]; Patient 2, risperidone tapered off over 2 days", "result": "two"},
      {"measurement": "hot flashes after treatment was resumed", "setting": "[1]; [9]", "result": "no longer experienced hot flashes"},
      {"measurement": "quality of sleep and life", "setting": "[1]; [9]", "result": "improved"},
      {"measurement": "frequency and intensity of hot flashes", "setting": "[1]; Patient 3, risperidone 1 mg per night, three days after starting, seven hot flashes per day before", "result": "markedly reduced"},
      {"measurement": "hot flashes after dose reduction", "setting": "[1]; Patient 3, three months later, risperidone 0.25 mg or less per day", "result": "still markedly eliminated"},
      {"measurement": "residual hot flashes", "setting": "[1]; Patient 4, risperidone 1 mg at bedtime for two days, then 2 mg per night, with hormone replacement therapy, three days after starting", "result": "completely eliminated"},
      {"measurement": "blood pressure", "setting": "[1]; Patient 4, risperidone 2 mg per night", "result": "stabilized within the normal range"},
      {"measurement": "affinity for α1-adrenergic receptors", "setting": "[2]", "result": "high affinity"},
      {"measurement": "binding to D1 dopamine receptors", "setting": "[3]", "result": "does not bind"},
      {"measurement": "affinity for D2 receptor", "setting": "[4]", "result": "high affinity"},
      {"measurement": "affinity for α2-adrenergic receptors", "setting": "[5]", "result": "lower affinities"}
    ]},
    {"compound": "Fc1ccc([C@@H]2CCNC[C@H]2COc2ccc3c(c2)OCO3)cc1", "note": "[paroxetine]", "values": [
      {"measurement": "minimizing the occurrence and severity of hot flashes compared with placebo", "setting": "[6]", "result": "more effective than placebo"}
    ]},
    {"compound": "COc1ccc(C(CN(C)C)C2(O)CCCCC2)cc1", "note": "(stereo not drawn) [venlafaxine]", "values": [
      {"measurement": "minimizing the occurrence and severity of hot flashes compared with placebo", "setting": "[6]", "result": "more effective than placebo"}
    ]},
    {"compound": "COC(=O)C1=C(C)NC(C)=C(C(=O)OC)C1c1ccccc1[N+](=O)[O-]", "note": "[adalate]", "values": [
      {"measurement": "blood pressure after sublingual dose for sudden onsets of high blood pressure", "setting": "[1]; human, in vivo", "result": "frequently dropped below critical level"}
    ]},
    {"compound": "OCCOCCN1CCN(C2=Nc3ccccc3Sc3ccccc32)CC1", "note": "[quetiapine]", "values": [
      {"measurement": "dissociation from the D2 receptor", "setting": "[7]", "result": "rapidly disassociates"}
    ]},
    {"compound": "Clc1cccc(Cl)c1N=C1NCCN1", "note": "[clonidine]", "values": [
      {"measurement": "adverse effects", "setting": "[6]; randomized clinical trials, including dry mouth, dizziness, and blurred vision", "result": "common"},
      {"measurement": "efficacy against hot flashes compared with placebo", "setting": "[6]; randomized clinical trials, tamoxifen-induced hot flashes (Goldberg 1994; Pandya 2000)", "result": "moderately more efficacious than placebo"}
    ]},
    {"compound": "estrogen", "values": [
      {"measurement": "response of perimenopausal symptoms to earlier therapies", "setting": "[1]; Patient 3, perimenopausal person", "result": "responded well"}
    ]}
  ]
}
